Laboratory results taken from patent publication US20260234115A1, “LIPID COMPOUNDS, COMPOSITIONS, AND USES THEREOF” (Liberate Bio, Inc., priority 2023, published 2026).
Marks after values point to notes of the source that are not given here.

Legend:
NHP organs = assay: In vivo activity screening in non-human primates: mean normalized UMI counts of barcoded mRNA in tissues after IV infusion of pooled F2 LNPs (Table 7, FIG. 8-11); design: species or system cynomolgus monkeys (Macaca fascicularis)
Description: Non-human primate (NIIP) biodistribution studies were performed in cynomolgus monkeys (e.g., Macaca fascicularis), aged 4-6 years. Animals were premedicated with dexamethasone, famotidine and diphenhydramine (at 1, 0.5 and 5 mg/kg, respectively) −2 and −1 day prior to test material dosing. LNP formulations (prepared in Formulation F2 from Example 1) were prepared with ionizable lipids so that each LNP formulation encapsulates one or more mRNAs with predetermined unique barcode sequences as their cargo. LNPs in PBS, identified by their unique barcoded mRNA cargo, are then pooled together at predetermined ratios. To evaluate LNP biodistribution into tissues upon systemic administration, NHPs received the dose administration by single intravenous infusion via peripheral vein (cephalic, saphenous, or another available) for 30 minutes with LNP dosing material (individual or pooled) in PBS at different total dose (0.5-1 mg/kg) levels.
At predetermined time points (4-6 hours after pooled test material administration), animals were sacrificed by exsanguination via the femoral artery after the intravenous injection of ketamine (10 mg/kg) and Euthasol® (0.25 mL/kg). Then, all animals underwent whole-body perfusion with PBS prior to tissue collection. 20-25 mg samples for biodistribution analysis were collected from all treatment group animals and then placed in sample tubes containing RNALater™ solution. All tissue samples were stored at room temperature for 24 hours, then the supernatants were removed, and samples were frozen.
To determine the unique LNPs distributed in the tissues, samples were homogenized by a tissue homogenizer (e.g., TissueLyser). Total RNA from the tissue homogenates were extracted by standard methods. Then, normalized amounts of RNA were sequenced using a targeted RNA sequencing approach with unique molecular identifiers (UMI) to ensure accurate RNA molecule counting. For each tissue, the resulting RNA molecule counts were normalized by pooled test article RNA counts. The results were analyzed using the internal bioinformatics pipeline.
LNPs comprising MC3 used as a control and for cross-mouse comparison. Dose is in mg/kg; LC is Lipid Compound according to Table 1.
Screening results for NHP Group 1 (spleen, femur, and muscle) are shown in FIG. 8A, FIG. 8B, and FIG. 8C.

mouse organs = assay: In vivo activity screening in mice: organ mean total flux (p/s) of luciferase activity after injection of F2 LNP pools (Table 6, FIG. 7A-7C); settings: Mouse 9, dose 0.5 mg/kg, luciferase mRNA
How it was run: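 Luciferase output per organ is reported as mean total flux (p/s) from IVIS regions of interest. Organs were collected from perfused C57BL/6J mice and imaged 10-15 min after s.c. D-luciferin, 4-6 h after i.v. dosing. Dosing was 0.25-3 mg/kg luciferase mRNA in F2 LNP pools.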

CCCCC/C=C\CCOC(=O)CCCCC(=O)OCC(COC(=O)CCCCC(=O)OCC/C=C\CCCCC)(COC(=O)CCC(CCCCCC)OC(=O)NCCN1CCCC1)COC(=O)C12CC3CC(CC(C3)C1)C2 (stereo not shown) [Compound 63, O6-[2-(adamantane-1-carbonyloxymethyl)-2-[[6-[(Z)-non-3-enoxy]-6-oxo-hexanoyl]oxymethyl]-3-[4-(2-pyrrolidin-1-ylethylcarbamoyloxy)decanoyloxy]propyl]O1-[(Z)-non-3-enyl]hexanedioate]
Mean normalized UMI counts (×10^4) Bone Marrow (NHP organs; cynomolgus monkey, in vivo, iv): 233.0 ×10^4 | Mean normalized UMI counts (×10^4) Brain (NHP organs; cynomolgus monkey, in vivo, iv): 72.8 ×10^4 | Mean normalized UMI counts (×10^4) Heart (NHP organs; cynomolgus monkey, in vivo, iv): 115.8 ×10^4 | Mean normalized UMI counts (×10^4) Kidney (NHP organs; cynomolgus monkey, in vivo, iv): 153.6 ×10^4 | Mean normalized UMI counts (×10^4) Liver (NHP organs; cynomolgus monkey, in vivo, iv): 108.2 ×10^4 | Mean normalized UMI counts (×10^4) Lung (NHP organs; cynomolgus monkey, in vivo, iv): 139.5 ×10^4 | Mean normalized UMI counts (×10^4) Muscle (NHP organs; cynomolgus monkey, in vivo, iv): 142.7 ×10^4 | Mean normalized UMI counts (×10^4) Pancreas (NHP organs; cynomolgus monkey, in vivo, iv): 89.4 ×10^4 | Mean normalized UMI counts (×10^4) Spleen (NHP organs; cynomolgus monkey, in vivo, iv): 207.6 ×10^4 | Organ Mean Total Flux Femur (mouse organs): 10.4 p/s (×10^6) | Organ Mean Total Flux Heart (mouse organs): 1.9 p/s (×10^6) | Organ Mean Total Flux Kidney (mouse organs): 2.4 p/s (×10^6) | Organ Mean Total Flux Liver (mouse organs): 351.7 p/s (×10^6) | Organ Mean Total Flux Lung (mouse organs): 37.3 p/s (×10^6) | Organ Mean Total Flux Muscle (mouse organs): 37.4 p/s (×10^6) | Organ Mean Total Flux Pancreas (mouse organs): 15.8 p/s (×10^6) | Organ Mean Total Flux Spleen (mouse organs): 40.7 p/s (×10^6)

CCCCC/C=C\CCOC(=O)CCCCC(=O)OCC(COC(=O)CCCCC(=O)OCC/C=C\CCCCC)(COC(=O)CCC(CCCCCC)OC(=O)C12CCN(CC1)CC2)COC(=O)CC12CC3CC(CC(C3)C1)C2 (stereo not shown) [Compound 62, O6-[2-[[2-(1-adamantyl)acetyl]oxymethyl]-2-[[6-[(Z)-non-3-enoxy]-6-oxo-hexanoyl]oxymethyl]-3-[4-(quinuclidine-4-carbonyloxy)decanoyloxy]propyl]O1-[(Z)-non-3-enyl]hexanedioate]
Mean normalized UMI counts (×10^4) Bone Marrow (NHP organs; NHP 2, bone marrow, pooled F2 LNPs, IV infusion, 4-6 hours): 19.0 ×10^4 | Mean normalized UMI counts (×10^4) Brain (NHP organs; NHP 2, brain, pooled F2 LNPs, IV infusion, 4-6 hours): 3.8 ×10^4 | Mean normalized UMI counts (×10^4) Heart (NHP organs; NHP 2, heart, pooled F2 LNPs, IV infusion, 4-6 hours): 87.0 ×10^4 | Mean normalized UMI counts (×10^4) Kidney (NHP organs; NHP 2, kidney, pooled F2 LNPs, IV infusion, 4-6 hours): 21.9 ×10^4 | Mean normalized UMI counts (×10^4) Liver (NHP organs; NHP 2, liver, pooled F2 LNPs, IV infusion, 4-6 hours): 27.4 ×10^4 | Mean normalized UMI counts (×10^4) Lung (NHP organs; NHP 2, lung, pooled F2 LNPs, IV infusion, 4-6 hours): 21.8 ×10^4 | Mean normalized UMI counts (×10^4) Muscle (NHP organs; NHP 2, muscle, pooled F2 LNPs, IV infusion, 4-6 hours): 43.9 ×10^4 | Mean normalized UMI counts (×10^4) Pancreas (NHP organs; NHP 2, pancreas, pooled F2 LNPs, IV infusion, 4-6 hours): 8.1 ×10^4 | Mean normalized UMI counts (×10^4) Spleen (NHP organs; NHP 2, spleen, pooled F2 LNPs, IV infusion, 4-6 hours): 29.8 ×10^4 | Organ Mean Total Flux Femur (mouse organs): 0.6 p/s (×10^6) | Organ Mean Total Flux Heart (mouse organs): 0.1 p/s (×10^6) | Organ Mean Total Flux Kidney (mouse organs): 0.3 p/s (×10^6) | Organ Mean Total Flux Liver (mouse organs): 38.0 p/s (×10^6) | Organ Mean Total Flux Lung (mouse organs): 2.5 p/s (×10^6) | Organ Mean Total Flux Muscle (mouse organs): 1.4 p/s (×10^6) | Organ Mean Total Flux Pancreas (mouse organs): 0.5 p/s (×10^6) | Organ Mean Total Flux Spleen (mouse organs): 3.3 p/s (×10^6)
